Legend:
[1] = molecular target: TRAF2 and NCK-interacting protein kinase (Homo sapiens) (UniProt Q9UKE5); assay: Inhibition of TNIK (unknown origin) assessed as residual activity at 1000 nM by KINOMEscan analysis relative to control
[2] = molecular target: T1, Serine/threonine-protein kinase Sgk1 (Homo sapiens) (UniProt O00141); assay: Inhibition of SGK (unknown origin) assessed as residual activity at 1000 nM by KINOMEscan analysis relative to control
T1 sequence (whole entry): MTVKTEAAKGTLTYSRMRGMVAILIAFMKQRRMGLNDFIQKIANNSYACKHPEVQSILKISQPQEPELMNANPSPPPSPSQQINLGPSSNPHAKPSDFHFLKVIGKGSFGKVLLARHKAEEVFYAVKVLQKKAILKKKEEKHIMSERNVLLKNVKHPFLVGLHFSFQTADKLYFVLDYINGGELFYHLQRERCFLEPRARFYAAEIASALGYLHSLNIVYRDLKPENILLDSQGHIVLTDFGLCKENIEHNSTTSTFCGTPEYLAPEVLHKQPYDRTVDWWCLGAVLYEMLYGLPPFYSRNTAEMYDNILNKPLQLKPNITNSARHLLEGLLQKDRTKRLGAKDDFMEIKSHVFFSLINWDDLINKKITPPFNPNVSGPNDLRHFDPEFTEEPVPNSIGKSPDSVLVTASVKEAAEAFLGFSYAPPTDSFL

[3] = molecular target: T2, Serine/threonine-protein kinase D3 (Homo sapiens) (UniProt O94806); assay: Inhibition of PRKD3 (unknown origin) assessed as residual activity at 1000 nM by KINOMEscan analysis relative to control
T2 sequence (whole entry): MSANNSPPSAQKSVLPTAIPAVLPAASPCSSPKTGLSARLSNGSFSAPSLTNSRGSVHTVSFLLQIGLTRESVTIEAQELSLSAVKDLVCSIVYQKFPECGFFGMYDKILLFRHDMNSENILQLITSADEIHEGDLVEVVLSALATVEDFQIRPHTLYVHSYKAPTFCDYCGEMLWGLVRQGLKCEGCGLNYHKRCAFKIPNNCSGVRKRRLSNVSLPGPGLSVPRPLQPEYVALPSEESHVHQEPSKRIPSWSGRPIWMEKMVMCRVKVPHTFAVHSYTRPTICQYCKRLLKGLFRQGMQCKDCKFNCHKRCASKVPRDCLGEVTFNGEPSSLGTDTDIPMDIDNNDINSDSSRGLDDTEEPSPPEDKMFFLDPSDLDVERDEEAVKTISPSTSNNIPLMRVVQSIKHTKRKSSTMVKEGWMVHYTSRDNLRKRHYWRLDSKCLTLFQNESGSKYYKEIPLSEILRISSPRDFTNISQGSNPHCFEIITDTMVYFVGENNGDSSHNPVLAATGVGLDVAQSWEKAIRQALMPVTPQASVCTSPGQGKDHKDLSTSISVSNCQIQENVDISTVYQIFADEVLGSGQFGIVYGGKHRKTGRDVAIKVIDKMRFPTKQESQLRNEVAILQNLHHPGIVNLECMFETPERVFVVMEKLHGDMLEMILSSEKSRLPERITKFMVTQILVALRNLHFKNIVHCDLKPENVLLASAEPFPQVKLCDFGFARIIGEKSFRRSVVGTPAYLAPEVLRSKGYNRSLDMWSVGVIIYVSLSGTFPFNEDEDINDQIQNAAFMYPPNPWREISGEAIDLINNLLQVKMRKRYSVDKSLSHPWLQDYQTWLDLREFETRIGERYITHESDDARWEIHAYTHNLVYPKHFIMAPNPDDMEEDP

[4] = molecular target: LIM domain kinase 1 (Homo sapiens) (UniProt P53667); assay: Inhibition of LIMK1 (unknown origin) assessed as residual activity at 1000 nM by KINOMEscan analysis relative to control
[5] = system: Mast/stem cell growth factor receptor Kit (Homo sapiens), P10721 [D816V]; assay: Inhibition of KIT D816V mutant (unknown origin) assessed as residual activity at 1000 nM by KINOMEscan analysis relative to control
[6] = molecular target: T3, Son of sevenless homolog 1 (Homo sapiens) (UniProt Q07889); assay: Binding affinity to N-terminal His10-tagged wild-type recombinant human SOS1 catalytic domain (564 to 1049 residues) expressed in Escherichia coli assessed as change in entropy by ITC analysis
T3 sequence (whole entry): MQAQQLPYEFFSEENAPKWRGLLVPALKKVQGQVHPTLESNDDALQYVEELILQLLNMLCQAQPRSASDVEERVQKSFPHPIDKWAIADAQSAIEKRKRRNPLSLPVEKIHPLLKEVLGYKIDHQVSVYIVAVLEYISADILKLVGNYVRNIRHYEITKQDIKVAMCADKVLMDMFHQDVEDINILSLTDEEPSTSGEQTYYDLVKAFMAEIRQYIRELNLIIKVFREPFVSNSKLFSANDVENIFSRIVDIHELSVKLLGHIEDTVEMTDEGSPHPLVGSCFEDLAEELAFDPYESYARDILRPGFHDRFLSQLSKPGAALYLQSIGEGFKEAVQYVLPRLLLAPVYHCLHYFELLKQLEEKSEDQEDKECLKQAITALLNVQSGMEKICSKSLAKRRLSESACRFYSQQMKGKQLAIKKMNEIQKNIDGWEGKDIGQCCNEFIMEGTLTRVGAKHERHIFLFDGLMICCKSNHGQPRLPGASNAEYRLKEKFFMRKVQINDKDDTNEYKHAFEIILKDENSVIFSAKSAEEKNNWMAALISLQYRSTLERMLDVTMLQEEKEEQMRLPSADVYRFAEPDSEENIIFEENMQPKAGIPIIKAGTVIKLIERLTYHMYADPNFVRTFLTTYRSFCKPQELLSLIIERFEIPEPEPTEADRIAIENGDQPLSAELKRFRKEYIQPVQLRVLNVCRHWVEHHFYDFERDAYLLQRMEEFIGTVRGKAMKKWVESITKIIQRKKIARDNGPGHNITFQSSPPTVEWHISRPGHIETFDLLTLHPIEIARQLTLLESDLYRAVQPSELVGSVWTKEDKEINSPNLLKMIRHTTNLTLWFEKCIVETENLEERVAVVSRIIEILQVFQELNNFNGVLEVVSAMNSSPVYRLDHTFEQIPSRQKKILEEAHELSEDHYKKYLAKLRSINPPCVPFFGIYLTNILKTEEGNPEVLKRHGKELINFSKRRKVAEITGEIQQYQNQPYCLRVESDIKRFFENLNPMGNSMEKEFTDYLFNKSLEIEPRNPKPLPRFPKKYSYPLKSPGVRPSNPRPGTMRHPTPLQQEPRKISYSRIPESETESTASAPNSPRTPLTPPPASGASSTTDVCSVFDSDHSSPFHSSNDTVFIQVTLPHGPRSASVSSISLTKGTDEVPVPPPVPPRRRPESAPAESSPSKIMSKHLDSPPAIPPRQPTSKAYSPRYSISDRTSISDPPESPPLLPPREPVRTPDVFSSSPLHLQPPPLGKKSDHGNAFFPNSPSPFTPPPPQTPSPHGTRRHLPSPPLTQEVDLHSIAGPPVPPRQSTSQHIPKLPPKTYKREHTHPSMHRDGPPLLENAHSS

Sequence of Mast/stem cell growth factor receptor Kit (Homo sapiens), P10721 [D816V] (P10721 whole entry D816V, the tested form may be a part): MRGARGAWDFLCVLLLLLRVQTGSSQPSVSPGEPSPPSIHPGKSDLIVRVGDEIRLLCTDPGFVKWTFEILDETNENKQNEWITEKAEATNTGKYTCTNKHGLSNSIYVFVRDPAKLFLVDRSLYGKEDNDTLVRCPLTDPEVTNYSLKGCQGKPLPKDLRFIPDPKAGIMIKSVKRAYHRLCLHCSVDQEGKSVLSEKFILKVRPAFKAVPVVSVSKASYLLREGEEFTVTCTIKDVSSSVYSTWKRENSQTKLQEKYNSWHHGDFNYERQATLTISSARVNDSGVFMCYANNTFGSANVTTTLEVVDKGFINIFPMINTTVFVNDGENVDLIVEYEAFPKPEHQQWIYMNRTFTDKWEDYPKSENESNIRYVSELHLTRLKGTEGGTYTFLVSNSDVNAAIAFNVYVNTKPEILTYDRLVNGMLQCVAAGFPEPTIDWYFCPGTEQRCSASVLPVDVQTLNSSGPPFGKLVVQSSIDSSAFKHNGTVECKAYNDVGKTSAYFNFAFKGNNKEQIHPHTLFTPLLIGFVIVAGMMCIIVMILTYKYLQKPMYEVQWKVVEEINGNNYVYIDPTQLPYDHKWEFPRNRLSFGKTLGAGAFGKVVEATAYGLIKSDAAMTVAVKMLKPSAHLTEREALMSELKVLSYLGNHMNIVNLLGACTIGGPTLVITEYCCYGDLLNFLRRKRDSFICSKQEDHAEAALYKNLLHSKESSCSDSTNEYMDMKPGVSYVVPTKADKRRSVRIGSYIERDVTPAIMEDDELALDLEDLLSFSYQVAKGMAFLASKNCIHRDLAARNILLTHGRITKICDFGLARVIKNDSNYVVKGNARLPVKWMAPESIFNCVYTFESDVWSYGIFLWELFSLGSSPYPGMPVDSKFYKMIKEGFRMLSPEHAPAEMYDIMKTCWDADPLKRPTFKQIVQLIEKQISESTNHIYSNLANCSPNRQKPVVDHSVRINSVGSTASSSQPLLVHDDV
Sequence of TRAF2 and NCK-interacting protein kinase (Homo sapiens) (Q9UKE5 whole entry, looked up): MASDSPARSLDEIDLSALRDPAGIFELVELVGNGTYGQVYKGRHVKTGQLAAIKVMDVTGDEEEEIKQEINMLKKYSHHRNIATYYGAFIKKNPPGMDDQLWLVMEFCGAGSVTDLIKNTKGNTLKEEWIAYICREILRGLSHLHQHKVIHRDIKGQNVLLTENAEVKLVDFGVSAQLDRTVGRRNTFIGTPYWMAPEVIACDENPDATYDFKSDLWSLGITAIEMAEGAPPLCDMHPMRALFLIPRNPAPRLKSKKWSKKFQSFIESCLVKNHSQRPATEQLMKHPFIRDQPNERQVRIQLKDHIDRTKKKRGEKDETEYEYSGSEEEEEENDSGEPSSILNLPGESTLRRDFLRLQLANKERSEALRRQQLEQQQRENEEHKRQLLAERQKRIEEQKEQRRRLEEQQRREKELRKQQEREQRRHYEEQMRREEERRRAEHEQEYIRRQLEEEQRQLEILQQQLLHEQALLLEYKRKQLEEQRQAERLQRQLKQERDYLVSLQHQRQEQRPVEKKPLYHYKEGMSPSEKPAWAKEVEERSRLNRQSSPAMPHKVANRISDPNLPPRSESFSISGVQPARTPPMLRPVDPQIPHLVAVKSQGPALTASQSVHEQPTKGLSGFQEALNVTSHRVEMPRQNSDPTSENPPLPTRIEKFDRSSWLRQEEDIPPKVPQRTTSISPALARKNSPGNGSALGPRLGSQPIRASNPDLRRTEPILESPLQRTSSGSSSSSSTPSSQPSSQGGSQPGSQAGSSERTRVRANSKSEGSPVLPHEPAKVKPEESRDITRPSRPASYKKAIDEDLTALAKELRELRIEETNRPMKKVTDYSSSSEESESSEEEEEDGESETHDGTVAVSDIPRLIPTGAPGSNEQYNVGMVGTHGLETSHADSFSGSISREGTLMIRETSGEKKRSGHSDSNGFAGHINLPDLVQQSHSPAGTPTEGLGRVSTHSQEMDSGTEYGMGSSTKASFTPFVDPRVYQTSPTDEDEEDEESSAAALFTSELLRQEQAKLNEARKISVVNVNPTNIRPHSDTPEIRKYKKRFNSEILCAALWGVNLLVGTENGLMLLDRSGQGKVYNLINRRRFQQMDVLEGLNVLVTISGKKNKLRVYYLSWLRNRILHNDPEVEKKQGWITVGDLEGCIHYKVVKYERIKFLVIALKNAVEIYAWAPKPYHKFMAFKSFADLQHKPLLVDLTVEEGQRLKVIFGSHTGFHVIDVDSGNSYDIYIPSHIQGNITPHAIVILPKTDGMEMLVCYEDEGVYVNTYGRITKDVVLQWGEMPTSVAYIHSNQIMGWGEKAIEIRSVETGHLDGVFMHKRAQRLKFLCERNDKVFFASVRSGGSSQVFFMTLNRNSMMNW
Sequence of LIM domain kinase 1 (Homo sapiens) (P53667 whole entry, looked up, the tested form may be a part): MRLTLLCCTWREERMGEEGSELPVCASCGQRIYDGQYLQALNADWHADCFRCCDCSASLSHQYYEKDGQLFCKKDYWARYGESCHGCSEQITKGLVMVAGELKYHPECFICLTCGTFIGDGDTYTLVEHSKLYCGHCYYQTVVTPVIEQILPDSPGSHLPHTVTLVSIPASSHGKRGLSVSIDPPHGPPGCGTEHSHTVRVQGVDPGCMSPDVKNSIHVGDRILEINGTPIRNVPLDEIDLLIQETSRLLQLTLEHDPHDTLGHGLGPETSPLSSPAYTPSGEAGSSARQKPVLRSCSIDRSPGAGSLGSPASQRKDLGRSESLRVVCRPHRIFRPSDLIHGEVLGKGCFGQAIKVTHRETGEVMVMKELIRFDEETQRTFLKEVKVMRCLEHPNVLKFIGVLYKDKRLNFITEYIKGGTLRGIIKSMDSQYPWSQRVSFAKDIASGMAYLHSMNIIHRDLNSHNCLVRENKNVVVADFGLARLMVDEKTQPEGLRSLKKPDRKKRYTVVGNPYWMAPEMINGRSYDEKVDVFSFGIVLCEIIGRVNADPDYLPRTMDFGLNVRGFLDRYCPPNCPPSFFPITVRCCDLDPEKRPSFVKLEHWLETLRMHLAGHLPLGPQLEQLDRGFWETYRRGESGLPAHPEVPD

Row | Compound | Activity [1] | Activity [2] | Activity [3] | Activity [4] | Activity [5] | -TdeltaS [6]
1 | COc1cc2nc(C)nc(N[C@H](C)c3cccc(-c4cn[nH]c4)c3)c2cc1OC | 87% | 74% | 100% | 100% | 55% | 
2 | CNCc1ccccc1-c1csc([C@@H](C)Nc2nc(C)nc3cc(OC)c(OC)cc23)c1 [BAY-293] |  |  |  |  |  | 5.5 kcal/mol
3 | COc1cc2ncnc(N[C@H](C)c3cccc4ccccc34)c2cc1OC | 100% | 11% | 100% | 100% | 96% | 5.5 kcal/mol

Reference: ChEMBL document CHEMBL5678818, “Discovery of potent SOS1 inhibitors that block RAS activation via disruption of the RAS-SOS1 interaction” (Proc Natl Acad Sci U S A, 2019)
